Laboratory results: patent publication US10080779B2, “Method for increasing the expression of anti-microbial peptides by keratinocytes comprising administering a composition comprising IL-17, TNF-alpha and OSM” (Universite D'Angers, priority 2004, dated 2018)

Legend:
[1] = tested on: NHEK; experiment: RT-QPCR of antimicrobial peptide and chemokine genes in NHEK; assay type: cell-based, human; details: 10 ng/ml, 24 h
Protocol: NHEK were obtained as previously described, from surgical samples of healthy breast skin (Boniface et al, 2005). NHEK were cultured to 80% of confluence and then starved for 24 h in Keratinocyte SFM without addition of growth factors before stimulation. Cells were stimulated with or without 10 ng/ml of recombinant IL-17A, OSM, TNFα, IL-22 and IL-1α alone or in combination (R&D systems Europe, Lille, France) during 24 h for mRNA quantification or 48 h to 96 h for protein quantification.
NHEK and skin total RNA were isolated and reverse-transcribed as previously described (Boniface et al, 2005). Quantitative real time PCR was carried using the LightCycler-FastStart DNA Master SYBR® Green I kit on LightCycler 480 (Roche Diagnostics, Meylan, France). The reaction components were 1×DNA Master Mix, and 0.5 μM of HPLC purified sense and anti-sense oligonucleotides purchased from Eurogentec (Eurogentec France, Angers, France), designed using Primer3 software. Samples were normalized to three independent control housekeeping genes (G3PDH, RPL13A or ACTB for human samples and G3PDH, HMBS or B2m for mouse samples) and reported according to the ΔΔCT method as RNA fold increase: 2^ΔΔCT=2^ΔCT sample−ΔCT eference. For comparison of normal skin and psoriatic skin the REST 2008 software was used (Pfaffl et al., 2002).

[2] = tested on: NHEK; experiment: cDNA macroarrays analysis of 36 cytokines on 154 genes in NHEK; assay type: cell-based, human; details: 10 ng/ml, 24 h
Protocol: The comparison of the effects of 36 different cytokines on the expression of 154 genes of potential interest for skin physiology was performed using home-made cDNA macroarrays analysis. After cytokine stimulation, total RNA was extracted using TRIzoI® Reagent (Invitrogen life Technologies) and conventional 33P-cDNA target synthesis and hybridization were performed (Boniface et al, 2007). Genes were considered regulated if expression levels differed more than 3-fold relative to untreated control and 3-fold relative to mean background noise.

[3] = tested on: normal human keratinocytes (NHEK); experiment: Cytokine cocktails on S100A7, hBD2/4, KRT10 mRNA in NHEK (RT-Q-PCR); assay type: cell-based; details: NHEK 24 hrs, 1 ng/ml each
Protocol: Quantitative real time PCR was carried out using the LightCycler-FastStart DNA Master^PLUS SYBR Green I kit (Roche, Mannheim, Germany). The reaction components were 1× FastStart DNA Master^PLUS SYBR Green I and 0.5 μM of forward and reverse primers for S100A7 (forward 5′-[…]-3′ (SEQ ID No: 9) and reverse 5′-[…]-3′ (SEQ ID No: 10)), S100A8 (Pattyn, Speleman et al. 2003), S100A9 (forward 5′-[…]-3′ (SEQ ID No: 11) and reverse 5′-[…]-3′ (SEQ ID No: 12)), hBD2/4 (forward 5′-[…]-3′ (SEQ ID No: 13) and reverse 5′-[…]-3′ (SEQ ID No: 14)), KRT10 (forward 5′-[…]-3′ (SEQ ID No: 15) and reverse 5′-[…]-3′ (SEQ ID No: 16)), and hydroxymethyl-bilane synthase (HMBS) as a housekeeping gene (Vandesompele, De Preter et al. 2002). After cDNA fluorescent quantification using propidium iodide, 250 ng, 25 ng and 2.5 ng of cDNA were added as PCR template in the LightCycler glass capillaries. The cycling conditions comprised a 10 min polymerase activation at 95° C. and 50 cycles at 95° C. for 10 s, 64° C. for 5 s and 72° C. for 18 s with a single fluorescence measurement. […] A mathematical model was used to determine the relative quantification of target genes compared to HMBS reference gene (Pfaffl 2001).
To that aim, confluent normal human keratinocytes (NHEK) were treated for 24 hrs with the indicated mix of cytokines (each cytokine at 1 ng/ml final concentration). Total RNA was extracted, reverse-transcribed and the expression of the selected genes was analyzed by real-time PCR as described.

In the case of “OSM: human recombinant oncostatin M, cytokine of the IL-6 family”, the “Number of the 21 chemokine and antimicrobial peptide genes upregulated” value [1] was 13, the “Number of genes (of 154) whose expression is modified with at least a three fold increase or decrease” value [2] was “at least five genes” and the “Decrease of the activity of the 5 cytokines reference mix on omission of the cytokine, S100A7” value [3] was 3 fold. For the same substance, the “Decrease of the activity of the 5 cytokines reference mix on omission of the cytokine, hBD2/4” value [3] was 2.5 fold.
